Experimental data from patent US10800792B2, “Inhibitors of Bruton's tyrosine kinase and method of their use” (JANSSEN PHARMACEUTICA NV, priority 2015, dated 2020).

Target: unphosphorylated-BTK kinase domain (UP-BTK), GST-tagged human BTK (389-659aa) (Homo sapiens (Human), UniProt Q06187)
Test: BTK kinase Lanthascreen binding assay
Conditions: pIC50 = negative log of the IC50 in molar, 60 minutes incubation, 50 nM Tracer 236
Outline: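 Measures how well compounds compete with a fluorescence-labelled tracer for binding to BTK in its unphosphorylated state. IC50 values were fitted and expressed as pIC50 (negative logarithm of the molar IC50).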

unphosphorylated-BTK kinase domain (UP-BTK), GST-tagged human BTK (389-659aa), sequence (Q06187 389-659): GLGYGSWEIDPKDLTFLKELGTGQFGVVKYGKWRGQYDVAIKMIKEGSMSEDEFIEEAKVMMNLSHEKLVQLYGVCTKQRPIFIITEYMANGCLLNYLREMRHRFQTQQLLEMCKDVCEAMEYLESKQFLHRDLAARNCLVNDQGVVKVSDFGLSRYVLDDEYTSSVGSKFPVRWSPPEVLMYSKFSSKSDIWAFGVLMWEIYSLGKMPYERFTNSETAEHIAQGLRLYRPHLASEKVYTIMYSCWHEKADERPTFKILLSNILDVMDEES

BTK_I_binding pIC50 | IC50 (read-out: BTK_I_binding pIC50 (converted)) | Structure (SMILES)
6.5 |  | Cc1cc(Oc2ccccc2)ccc1N1C(=O)Nc2c(C(=O)NCCN3CCNC3=O)sc3nccc1c23 [Example 217, 5-(2-Methyl-4-phenoxyphenyl)-4-oxo-N-(2-(2-oxoimidazolidin-1-yl)ethyl)-4,5-dihydro-3H-1-thia-3,5,8-triazaacenaphthylene-2-carboxamide]
6.8 |  | Cc1cc(Oc2ccccc2)ccc1N1C(=O)Nc2c(C(=O)N[C@H]3CNC[C@@H]3F)sc3nccc1c23 [Example 218, N-((3S,4S)-4-Fluoropyrrolidin-3-yl)-5-(2-methyl-4-phenoxyphenyl)-4-oxo-4,5-dihydro-3H-1-thia-3,5,8-triazaacenaphthylene-2-carboxamide]
6.9 |  | Cc1cc(Oc2ccccc2)ccc1N1C(=O)Nc2c(C(=O)N[C@@H]3CCCN(C(=O)C4CCOCC4)C3)sc3nccc1c23 [Example 219, (R)-5-(2-Methyl-4-phenoxyphenyl)-4-oxo-N-(1-(tetrahydro-2H-pyran-4-carbonyl)piperidin-3-yl)-4,5-dihydro-3H-1-thia-3,5,8-triazaacenaphthylene-2-carboxamide]
6.5 |  | Cc1cc(Oc2ccccc2O)ccc1N1C(=O)Nc2c(C(=O)N[C@@H]3CCCN(C)C3)sc3nccc1c23 [Example 220, (R)-5-(4-(2-Hydroxyphenoxy)-2-methylphenyl)-N-(1-methylpiperidin-3-yl)-4-oxo-4,5-dihydro-3H-1-thia-3,5,8-triazaacenaphthylene-2-carboxamide]
6.7 |  | Cc1cc(Oc2ccccc2)cc(F)c1N1C(=O)Nc2c(C(=O)N[C@@H]3CCCN(C)C3)sc3nccc1c23 [Example 222, (R)-5-(2-Fluoro-6-methyl-4-phenoxyphenyl)-N-(1-methylpiperidin-3-yl)-4-oxo-4,5-dihydro-3H-1-thia-3,5,8-triazaacenaphthylene-2-carboxamide]
6.6 |  | Cc1cc(Oc2ccccc2C(C)C)ccc1N1C(=O)Nc2c(C(=O)N[C@@H]3CCCN(C)C3)sc3nccc1c23 [Example 223, (R)-5-(4-(2-Isopropylphenoxy)-2-methylphenyl)-N-(1-methylpiperidin-3-yl)-4-oxo-4,5-dihydro-3H-1-thia-3,5,8-triazaacenaphthylene-2-carboxamide]
6.8 |  | CO[C@H]1CNC[C@H](NC(=O)c2sc3nccc4c3c2NC(=O)N4c2ccc(Oc3ccccc3)cc2C)C1 [Example 224, N-((3R,5R)-5-Methoxypiperidin-3-yl)-5-(2-methyl-4-phenoxyphenyl)-4-oxo-4,5-dihydro-3H-1-thia-3,5,8-triazaacenaphthylene-2-carboxamide]
6.7 |  | CC(C)=CC(=O)N1CCC[C@@H](NC(=O)c2sc3nccc4c3c2NC(=O)N4c2ccc(Oc3ccccc3)cc2C)C1 [Example 225, (R)-5-(2-Methyl-4-phenoxyphenyl)-N-(1-(3-methylbut-2-enoyl)piperidin-3-yl)-4-oxo-4,5-dihydro-3H-1-thia-3,5,8-triazaacenaphthylene-2-carboxamide]
6.5 |  | COCc1cccc(Oc2ccc(N3C(=O)Nc4c(C(=O)N[C@@H]5CCCN(C)C5)sc5nccc3c45)c(C)c2)c1 [Example 226, (R)-5-(4-(3-(Methoxymethyl)phenoxy)-2-methylphenyl)-N-(1-methylpiperidin-3-yl)-4-oxo-4,5-dihydro-3H-1-thia-3,5,8-triazaacenaphthylene-2-carboxamide]
6.5 |  | Cc1cc(Oc2ccccc2OC(F)(F)F)ccc1N1C(=O)Nc2c(C(=O)N[C@@H]3CCCN(C)C3)sc3nccc1c23 [Example 227, (R)-5-(2-Methyl-4-(2-(trifluoromethoxy)phenoxy)phenyl)-N-(1-methylpiperidin-3-yl)-4-oxo-4,5-dihydro-3H-1-thia-3,5,8-triazaacenaphthylene-2-carboxamide]
6.6 |  | Cc1cc(Oc2ccccc2)ccc1N1C(=O)Nc2c(C(=O)N[C@@H]3CCCN(C(=O)/C(F)=C/C4CC4)C3)sc3nccc1c23 [Example 228, (R,Z)—N-(1-(3-Cyclopropyl-2-fluoroacryloyl)piperidin-3-yl)-5-(2-methyl-4-phenoxyphenyl)-4-oxo-4,5-dihydro-3H-1-thia-3,5,8-triazaacenaphthylene-2-carboxamide]
6.7 |  | Cc1cc(Oc2ccccc2)ccc1N1C(=O)Nc2c(C(=O)NC3CN(C(=O)/C(C#N)=C/C4CC4)C3)sc3nccc1c23 [Example 229, (E)-N-(1-(2-Cyano-3-cyclopropylacryloyl)azetidin-3-yl)-5-(2-methyl-4-phenoxyphenyl)-4-oxo-4,5-dihydro-3H-1-thia-3,5,8-triazaacenaphthylene-2-carboxamide]
6.4 |  | Cc1cc(Oc2ccccc2)ccc1N1C(=O)Nc2c(C(=O)NC3CN(C4CC4)C3)sc3nccc1c23 [Example 230, N-(1-Cyclopropylazetidin-3-yl)-5-(2-methyl-4-phenoxyphenyl)-4-oxo-4,5-dihydro-3H-1-thia-3,5,8-triazaacenaphthylene-2-carboxamide]
7.2 |  | Cc1cc(OC2CCOCC2)ccc1N1C(=O)Nc2c(C(=O)N[C@@H]3CCCN(C(=O)/C(C#N)=C/C4CC4)C3)sc3nccc1c23 [Example 233, (R,E)-N-(1-(2-Cyano-3-cyclopropylacryloyl)piperidin-3-yl)-5-(2-methyl-4-((tetrahydro-2H-pyran-4-yl)oxy)phenyl)-4-oxo-4,5-dihydro-3H-1-thia-3,5,8-triazaacenaphthylene-2-carboxamide]
7.0 |  | O=C(N[C@@H]1CCCNC1)c1sc2nccc3c2c1NC(=O)N3c1c(F)cc(Oc2ccccc2)cc1F [Example 235, (R)-5-(2,6-difluoro-4-phenoxyphenyl)-4-oxo-N-(piperidin-3-yl)-4,5-dihydro-3H-1-thia-3,5,8-triazaacenaphthylene-2-carboxamide]
7.0 |  | Cc1cc(Oc2ccccc2)ccc1N1C(=O)Nc2c(C(=O)N[C@H]3CNC[C@@H]3O)sc3nccc1c23 [Example 236, N-((3S,4S)-4-Hydroxypyrrolidin-3-yl)-5-(2-methyl-4-phenoxyphenyl)-4-oxo-4,5-dihydro-3H-1-thia-3,5,8-triazaacenaphthylene-2-carboxamide]
6.9 |  | Cc1cc(Oc2ccccc2)ccc1N1C(=O)Nc2c(C(=O)NC3CCCN(C(=O)/C=C/CNC(=O)CCCC(=O)NCCCOCCOCCOCCCNC(=O)CCCC[C@H]4SC[C@@H]5NC(=O)N[C@@H]54)C3)sc3nccc1c23 (stereo partly drawn) [Example 237, N^1-((E)-4-(3-(5-(2-methyl-4-phenoxyphenyl)-4-oxo-4,5-dihydro-3H-1-thia-3,5,8-triazaacenaphthylene-2-carboxamido)piperidin-1-yl)-4-oxobut-2-en-1-yl)-N5-(15-oxo-19-((3aS,4R,6aR)-2-oxohexahydro-1H-thieno[34-d]imidazol-4-yl)-4,7,10-trioxa-14-azanonadecyl)glutaramide]
6.8 |  | CNC(C)(C)/C=C(\C#N)C(=O)N1CCC[C@@H](NC(=O)c2sc3nccc4c3c2NC(=O)N4c2ccc(Oc3ccccc3)cc2C)C1 [Example 238, (R,E)-N-(1-(2-Cyano-4-methyl-4-(methylamino)pent-2-enoyl)piperidin-3-yl)-5-(2-methyl-4-phenoxyphenyl)-4-oxo-4,5-dihydro-3H-1-thia-3,5,8-triazaacenaphthylene-2-carboxamide]
 | 200 nM | Cc1cc(Oc2ccccc2)ccc1N1C(=O)Nc2c(C(=O)NC3CN(C(=O)CCS(C)(=O)=O)C3)sc3nccc1c23 [Example 240]
6.7 |  | Cc1cc(Oc2ccccc2)ccc1N1C(=O)Nc2c(C(=O)N[C@H]3CNC[C@H]3O)sc3nccc1c23 [Example 241, N-((3S,4R)-4-hydroxypyrrolidin-3-yl)-5-(2-methyl-4-phenoxyphenyl)-4-oxo-4,5-dihydro-3H-1-thia-3,5,8-triazaacenaphthylene-2-carboxamide]
6.7 |  | Cc1cc(Oc2ccccc2C(F)(F)F)ccc1N1C(=O)Nc2c(C(=O)N[C@@H]3CCCN(C)C3)sc3nccc1c23 [Example 242, (R)-5-(2-Methyl-4-(2-(trifluoromethyl)phenoxy)phenyl)-N-(1-methylpiperidin-3-yl)-4-oxo-4,5-dihydro-3H-1-thia-3,5,8-triazaacenaphthylene-2-carboxamide]
6.6 |  | Cc1cc(Oc2ccccc2)ccc1N1C(=O)Nc2c(C(=O)N[C@H]3CN(C)C[C@@H]3O)sc3nccc1c23 [Example 243, N-((3S,4S)-4-Hydroxy-1-methylpyrrolidin-3-yl)-5-(2-methyl-4-phenoxyphenyl)-4-oxo-4,5-dihydro-3H-1-thia-3,5,8-triazaacenaphthylene-2-carboxamide]
6.6 |  | CO[C@H]1CN(C)C[C@@H]1NC(=O)c1sc2nccc3c2c1NC(=O)N3c1ccc(Oc2ccccc2)cc1C [Example 244, N-((3S,4S)-4-Methoxy-1-methylpyrrolidin-3-yl)-5-(2-methyl-4-phenoxyphenyl)-4-oxo-4,5-dihydro-3H-1-thia-3,5,8-triazaacenaphthylene-2-carboxamide]
6.6 |  | CO[C@H]1CNC[C@@H]1NC(=O)c1sc2nccc3c2c1NC(=O)N3c1ccc(Oc2ccccc2)cc1C [Example 245, N-((3S,4S)-4-Methoxypyrrolidin-3-yl)-5-(2-methyl-4-phenoxyphenyl)-4-oxo-4,5-dihydro-3H-1-thia-3,5,8-triazaacenaphthylene-2-carboxamide]
6.5 |  | COCCC(=O)N1CC(NC(=O)c2sc3nccc4c3c2NC(=O)N4c2ccc(Oc3ccccc3)cc2C)C1 [Example 246, N-(1-(3-Methoxypropanoyl)azetidin-3-yl)-5-(2-methyl-4-phenoxyphenyl)-4-oxo-4,5-dihydro-3H-1-thia-3,5,8-triazaacenaphthylene-2-carboxamide]
